The source of these data is patent publication US9884849B2, “Fluorinated benzofuranyl-pyrimidine derivatives containing a sulfoximine group” (Bayer Pharma Aktiengesellschaft, priority 2014, dated 2018).

One assay deals with T1, CDK2/CycE (Homo sapiens, UniProt P24941).
T1 construct: GST; purchased ProQinase GmbH (Freiburg, Germany); host or cells: insect cells (Sf9)
As to the kind of experiment: CDK2/CycE high ATP kinase assay (Method 2b, TR-FRET). In kind it is biochemical. The settings on record: 2 mM ATP. The method, then:
2b. CDK2/CycE High ATP Kinase Assay:
CDK2/CycE-Inhibitory Activity of Compounds of the Present Invention at 2 mM Adenosine-Tri-Phosphate (ATP) was Quantified Employing the CDK2/CycE TR-FRET (TR-FRET=Time Resolved Fluorescence Energy Transfer) Assay as Described in the Following Paragraphs.
Recombinant fusion proteins of GST and human CDK2 and of GST and human CycE, expressed in insect cells (Sf9) and purified by Glutathion-Sepharose affinity chromatography, were purchase from ProQinase GmbH (Freiburg, Germany). As substrate for the kinase reaction biotinylated peptide biotin-Ttds-YISPLKSPYKISEG (C-terminus in amid form) was used which can be purchased e.g. form the company JERINI peptide technologies (Berlin, Germany).
For the assay 50 nl of a 100 fold concentrated solution of the test compound in DMSO was pipetted into a black low volume 384 well microtiter plate (Greiner Bio-One, Frickenhausen, Germany), 2 yl of a solution of CDK2/CycE in aqueous assay buffer [50 mM Tris/HCl pH 8.0, 10 mM MgCl2, 1.0 mM dithiothreitol, 0.1 mM sodium ortho-vanadate, 0.01% (v/v) Nonidet-P40 (Sigma)] were added and the mixture was incubated for 15 min at 22° C. to allow pre-binding of the test compounds to the enzyme before the start of the kinase reaction. […] The concentration of CDK2/CycE was adjusted depending of the activity of the enzyme lot and was chosen appropriate to have the assay in the linear range, typical concentrations were in the range of 15 ng/ml. The reaction was stopped by the addition of 5 yl of a solution of TR-FRET detection reagents (0.2 μM streptavidine-XL665 [Cisbio Bioassays, Codolet, France] and 1 nM anti-RB(pSer807/pSer811)-antibody from BD Pharmingen [#558389] and 1.2 nM LANCE EU-W1024 labeled anti-mouse IgG antibody [Perkin-Elmer, product no. AD0077, as an alternative a Terbium-cryptate-labeled anti-mouse IgG antibody from Cisbio Bioassays can be used]) in an aqueous EDTA-solution (100 mM EDTA, 0.2% (w/v) bovine serum albumin in 100 mM HEPES/NaOH pH 7.0).
The resulting mixture was incubated 1 h at 22° C. to allow the formation of complex between the phosphorylated biotinylated peptide and the detection reagents. Subsequently the amount of phosphorylated substrate was evaluated by measurement of the resonance energy transfer from the Eu-chelate to the streptavidine-XL. Therefore, the fluorescence emissions at 620 nm and 665 nm after excitation at 350 nm were measured in a TR-FRET reader, e.g. a Rubystar (BMG Labtechnologies, Offenburg, Germany) or a Viewlux (Perkin-Elmer). The ratio of the emissions at 665 nm and at […] was taken as the measure for the amount of phosphorylated substrate. The data were normalised (enzyme reaction without inhibitor=0% inhibition, all other assay components but no enzyme=100% inhibition).

For another assay, the system named is HeLa cells. The assay is described as follows: Proliferation assay HeLa (Method 3). The class given is cell-based, human. The settings on record: 4 days, crystal violet, read-out: Inhibition of HeLa cell proliferation IC50. As for the experimental part: Cultivated tumour cells (HeLa, human cervical tumour cells, ATCC CCL-2; NCI-H460, human non-small cell lung carcinoma cells, ATCC HTB-177; A2780, human ovarian carcinoma cells, ECACC #93112519; DU 145, hormone-independent human prostate carcinoma cells, ATCC HTB-81; HeLa-MaTu-ADR, multidrug-resistant human cervical carcinoma cells, EPO-GmbH Berlin; Caco-2, human colorectal carcinoma cells, ATCC HTB-37; B16F10, mouse melanoma cells, ATCC CRL-6475) were plated at a density of 5,000 cells/well (DU145, HeLa-MaTu-ADR), 3,000 cells/well (NCI-H460, HeLa), 2,500 cells/well (A2780), 1,500 cells/well (Caco-2), or 1,000 cells/well (B16F10) in a 96-well multititer plate in 200 μL of their respective growth medium supplemented 10% fetal calf serum. After 24 hours, the cells of one plate (zero-point plate) were stained with crystal violet (see below), while the medium of the other plates was replaced by fresh culture medium (200 μl), to which the test substances were added in various concentrations (0 μM, as well as in the range of 0.001-10 μM; the final concentration of the solvent dimethyl sulfoxide was 0.5%). The cells were incubated for 4 days in the presence of test substances. Cell proliferation was determined by staining the cells with crystal violet: the cells were fixed by adding 20 μl/measuring point of an 11% glutaric aldehyde solution for 15 minutes at room temperature. After three washing cycles of the fixed cells with water, the plates were dried at room temperature. The cells were stained by adding 100 μl/measuring point of a 0.1% crystal violet solution (pH 3.0). After three washing cycles of the stained cells with water, the plates were dried at room temperature. The dye was dissolved by adding 100 μl/measuring point of a 10% acetic acid solution. The extinction was determined by photometry at a wavelength of 595 nm. The change of cell number, in percent, was calculated by normalization of the measured values to the extinction values of the zero-point plate (=0%) and the extinction of the untreated (0 μm) cells (=100%). The IC50 values (inhibitory concentration at 50% of maximal effect) were determined by means of a 4 parameter fit.

Like-named read-outs stand apart in the source and are kept apart here.

On to `CS(=N)(=O)Cc1cccc(Nc2ncc(F)c(-c3ccc(F)c4ccoc34)n2)c1` (racemic) [Example 4, (rac)-5-Fluoro-4-(4-fluoro-1-benzofuran-7-yl)-N-{3-[(S-methylsulfonimidoyl)-methyl]phenyl}-pyrimidin-2-amine], for which the IC50 at CDK2/CycE came to 510 nM; in the assay with HeLa cells (Homo sapiens, 96 h) it was 297 nM.

As to `CS(=N)(=O)Cc1cc(F)cc(Nc2ncc(F)c(-c3ccc(F)c4ccoc34)n2)c1` (racemic) [Example 10, (rac)-5-Fluoro-4-(4-fluoro-1-benzofuran-7-yl)-N-{3-fluoro-5-[(S-methylsulfonimidoyl)-methyl]-phenyl}-pyrimidin-2-amine], the IC50 at CDK2/CycE was 1800 nM; in the assay on HeLa cells (Homo sapiens, 96 h), 97 nM.

In the case of `CS(=O)(Cc1cccc(Nc2ncc(F)c(-c3ccc(F)c4ccoc34)n2)c1)=NC#N` (single isomer, unassigned) [Example 2, [(3-{[5-Fluoro-4-(4-fluoro-1-benzofuran-7-yl)pyrimidin-2-yl]amino}benzyl)(methyl)oxido-λ^6-sulfanylidene]cyanamide], the results for the IC50 against CDK2/CycE and with HeLa cells were 353 nM and 100 nM, respectively.

For `CS(=O)(Cc1cc(F)cc(Nc2ncc(F)c(-c3ccc(F)c4ccoc34)n2)c1)=NC#N` (single isomer, unassigned) [Example 9, [(3-Fluoro-5-{[5-fluoro-4-(4-fluoro-1-benzofuran-7-yl)pyrimidin-2-yl]amino}benzyl)(methyl)-oxido-λ^6-sulfanylidene]cyanamide], the IC50 turned out to be 2230 nM on CDK2/CycE and 31 nM with HeLa cells.

Take `CS(=N)(=O)Cc1cccc(Nc2ncc(F)c(-c3ccc(F)c4ccoc34)n2)c1` (single isomer, unassigned) [Example 5, 5-Fluoro-4-(4-fluoro-1-benzofuran-7-yl)-N-{3-[(S-methylsulfonimidoyl)-methyl]-phenyl}-pyrimidin-2-amine]: the IC50 against CDK2/CycE stood at 802 nM; in the assay with HeLa cells (Homo sapiens, 96 h), 177 nM.

Turning to `CS(=O)(Cc1cc(Nc2ncc(F)c(-c3ccc(F)c4ccoc34)n2)cc(S(F)(F)(F)(F)F)c1)=NC#N` (racemic) [Example 17, (rac)-{[3-{[5-fluoro-4-(4-fluoro-1-benzofuran-7-yl)pyrimidin-2-yl]amino}-5-(pentafluoro-λ^6-sulfanyl)benzyl](methyl)oxido-λ^6-sulfanylidene}cyanamide], the IC50 worked out at 1460 nM at CDK2/CycE and 99 nM in the assay with HeLa cells (Homo sapiens, 96 h).

On to `Cc1cc(CS(C)(=O)=NC#N)cc(Nc2ncc(F)c(-c3ccc(F)c4ccoc34)n2)c1` (racemic) [Example 13, (rac)-[(3-{[5-Fluoro-4-(4-fluoro-1-benzofuran-7-yl)pyrimidin-2-yl]amino}-5-methylbenzyl)-(methyl)oxido-λ^6-sulfanylidene]cyanamide], for which the IC50 is 1200 nM at CDK2/CycE and 40 nM in the assay on HeLa cells (Homo sapiens, 96 h).

With `CS(=N)(=O)Cc1cc(F)cc(Nc2ncc(F)c(-c3ccc(F)c4ccoc34)n2)c1` (single isomer, unassigned) [Example 11, 5-Fluoro-4-(4-fluoro-1-benzofuran-7-yl)-N-{3-fluoro-5-[(S-methylsulfonimidoyl)-methyl]-phenyl}-pyrimidin-2-amine], the IC50 against CDK2/CycE was determined as 913 nM; with HeLa cells (Homo sapiens, 96 h), 31 nM.

Take `CS(=N)(=O)Cc1cccc(Nc2ncc(F)c(-c3ccc(F)c4ccoc34)n2)c1` (single isomer, unassigned) [Example 6, 5-Fluoro-4-(4-fluoro-1-benzofuran-7-yl)-N-{3-[(S-methylsulfonimidoyl)-methyl]-phenyl}-pyrimidin-2-amine]: the IC50 on CDK2/CycE is 1000 nM; in the assay with HeLa cells, 115 nM.

For the compound `Cc1cc(CS(C)(=O)=NC#N)cc(Nc2ncc(F)c(-c3ccc(F)c4ccoc34)n2)c1` (single isomer, unassigned) [Example 14, [(3-{[5-Fluoro-4-(4-fluoro-1-benzofuran-7-yl)pyrimidin-2-yl]amino}-5-methylbenzyl)-(methyl)oxido-λ^6-sulfanylidene]cyanamide], the IC50 on CDK2/CycE is 846 nM; in the assay on HeLa cells (Homo sapiens, 96 h), 96 nM.

On to `Cc1cc(CS(C)(=O)=NC#N)cc(Nc2ncc(F)c(-c3ccc(F)c4ccoc34)n2)c1` (single isomer, unassigned) [Example 15, [(3-{[5-Fluoro-4-(4-fluoro-1-benzofuran-7-yl)pyrimidin-2-yl]amino}-5-methylbenzyl)-(methyl)oxido-λ^6-sulfanylidene]cyanamide], for which the values for the IC50 against CDK2/CycE and in the assay with HeLa cells were 835 nM and 107 nM, respectively.

On to `CS(=N)(=O)Cc1cc(F)cc(Nc2ncc(F)c(-c3ccc(F)c4ccoc34)n2)c1` (single isomer, unassigned) [Example 12, 5-Fluoro-4-(4-fluoro-1-benzofuran-7-yl)-N-{3-fluoro-5-[(S-methylsulfonimidoyl)-methyl]-phenyl}-pyrimidin-2-amine], for which the IC50 against CDK2/CycE was 1250 nM; in the assay with HeLa cells it was 30 nM.

As to `Cc1cc(CS(C)(=N)=O)cc(Nc2ncc(F)c(-c3ccc(F)c4ccoc34)n2)c1` (racemic) [Example 16, (rac)-5-Fluoro-4-(4-fluoro-1-benzofuran-7-yl)-N-{3-methyl-5-[(S-methylsulfonimidoyl)-methyl]phenyl}pyrimidin-2-amine], the IC50 came out at 491 nM at CDK2/CycE and 46 nM with HeLa cells (Homo sapiens, 96 h).

Take `CS(=O)(Cc1cccc(Nc2ncc(F)c(-c3ccc(F)c4ccoc34)n2)c1)=NC#N` (single isomer, unassigned) [Example 3, [(3-{[5-Fluoro-4-(4-fluoro-1-benzofuran-7-yl)pyrimidin-2-yl]amino}benzyl)(methyl)oxido-λ^6-sulfanylidene]cyanamide]: the IC50 came out at 475 nM at CDK2/CycE and 109 nM in the assay on HeLa cells (Homo sapiens, 96 h).

Regarding `CS(=O)(Cc1cc(F)cc(Nc2ncc(F)c(-c3ccc(F)c4ccoc34)n2)c1)=NC#N` (single isomer, unassigned) [Example 8, [(3-Fluoro-5-{[5-fluoro-4-(4-fluoro-1-benzofuran-7-yl)pyrimidin-2-yl]amino}benzyl)(methyl)-oxido-λ^6-sulfanylidene]cyanamide], the results for the IC50 on CDK2/CycE and in the assay on HeLa cells were 812 nM and 89 nM, respectively.

`CS(=O)(Cc1cc(F)cc(Nc2ncc(F)c(-c3ccc(F)c4ccoc34)n2)c1)=NC#N` (racemic) [Example 7, (rac)-[(3-Fluoro-5-{[5-fluoro-4-(4-fluoro-1-benzofuran-7-yl)pyrimidin-2-yl]amino}benzyl)(methyl)-oxido-λ^6-sulfanylidene]cyanamide]: the IC50 was 652 nM against CDK2/CycE and 50 nM with HeLa cells (Homo sapiens, 96 h).
